Measured values as given in US8476197B2, “Aminopropenoates as fungicides” (priority 2009, dated 2013).
Marks after values point to notes of the source that are not given here.

Details: pH 2.7
For `CCOC(=O)C(C#N)=C(NC(C)c1nccs1)c1c(C(F)F)nn(C)c1Cl` (racemic) [Compound 234], the “Log P” value was 2.77^[a]. For `CCOC(=O)C(C#N)=C(NC(C)c1nc(C)c(C)s1)c1c(C(F)F)nn(C)c1Cl` (racemic) [Compound 235], the “Log P” value was 3.37^[a]. In the case of `CCOC(=O)C(C#N)=C(NC(C)Cc1c[nH]c2ccccc12)c1c(C(F)F)nn(C)c1Cl` (racemic) [Compound 237], the “Log P” value is reported as 3.42^[a]. For `C=Cc1nn(C)cc1C(NC(C)c1nccs1)=C(C#N)C(=O)OCC` (racemic) [Compound 238], the “Log P” value was 2.3^[a]. In the case of `CCOC(=O)C(C#N)=C(NC(C)c1nccs1)c1nc(SC)ncc1Br` (racemic) [Compound 240], the “Log P” value is reported as 3.21^[a]. In the case of `CCOC(=O)C(C#N)=C(NC(C)c1nccs1)c1sc(Cl)nc1Cl` (racemic) [Compound 242], the “Log P” value is reported as 3.27^[a]. With `CCOC(=O)C(C#N)=C(NC(C)c1cccs1)c1ccsc1Br` (racemic) [Compound 250] the “Log P” value was 3.99^[a]. For `CCOC(=O)C(C#N)=C(NC(C)c1nccs1)c1cc(Cl)ncc1Cl` (racemic) [Compound 252], the “Log P” value was 3.15^[a]. With `CCOC(=O)C(C#N)=C(NC(C)c1nc(C(C)C)no1)c1cc(Cl)ncc1Cl` (racemic) [Compound 253] the “Log P” value was 2.2[a]. In the case of `CCOC(=O)C(C#N)=C(NC(C)c1nc(C(F)(F)F)no1)c1cc(Cl)ncc1Cl` (racemic) [Compound 254], the “Log P” value is reported as 3.83^[a]. With `CCOC(=O)C(C#N)=C(NC(C)c1nn(C)c(=O)n1C)c1cc(Cl)ncc1Cl` (racemic) [Compound 255] the “Log P” value was 3.76^[a]. With `CCOC(=O)C(C#N)=C(NC(C)c1nccs1)c1cnccc1C(F)(F)F` (racemic) [Compound 256] the “Log P” value was 2.7^[a]. With `CCOC(=O)C(C#N)=C(NC(C)c1nccs1)c1cnccc1Br` (racemic) [Compound 257] the “Log P” value was 2.88^[a]. With `CCOC(=O)C(C#N)=C(NC(C)c1nccs1)c1cnccc1Cl` (racemic) [Compound 258] the “Log P” value was 2.78^[a]. With `CCOC(=O)C(C#N)=C(NC(C)c1ccccn1)c1ccncc1Cl` (racemic) [Compound 260] the “Log P” value was 2.54^[a]. With `CCOC(=O)C(C#N)=C(NC(C)c1sc(C)nc1C)c1ccsc1Br` (racemic) [Compound 261] the “Log P” value was 2.9^[a]. With `CCOC(=O)C(C#N)=C(NC(C)c1ccn(C)n1)c1cccnc1C(F)F` (racemic) [Compound 263] the “Log P” value was 2.18^[a]. For `CCOC(=O)C(C#N)=C(NC(C)c1ccccn1)c1cccnc1C(F)F` (racemic) [Compound 264], the “Log P” value was 2.46^[a]. In the case of `CCOC(=O)C(C#N)=C(NC(C)c1nccs1)c1cc(Cl)cc(Cl)n1` (racemic) [Compound 265], the “Log P” value is reported as 3.31^[a]. For `CCOC(=O)C(C#N)=C(NC(C)c1nccs1)c1cccnc1C(F)F` (racemic) [Compound 266], the “Log P” value was 2.39^[a]. With `CCOC(=O)C(C#N)=C(NC(C)c1ccccn1)c1cn(C)cc1C(F)(F)F` (racemic) [Compound 270] the “Log P” value was 2.92^[a]. In the case of `CCOC(=O)C(C#N)=C(NC(C)c1nccs1)c1cn(C)cc1C(F)(F)F` (racemic) [Compound 271], the “Log P” value is reported as 2.97^[a]. With `CCOC(=O)C(C#N)=C(NC(C)CN1CCCCC1)c1cccnc1Cl` (racemic) [Compound 273] the “Log P” value was 1.2^[a]. For `CCOC(=O)C(C#N)=C(NC(C)CN1CCOCC1)c1cccnc1Cl` (racemic) [Compound 274], the “Log P” value was 1.3^[a]. In the case of `CCOC(=O)C(C#N)=C(NC(C)c1cscn1)c1cccnc1Cl` (racemic) [Compound 275], the “Log P” value is reported as 2.4^[a]. For `CCOC(=O)C(C#N)=C(NC(C)c1ccn(C)n1)c1cccnc1Cl` (racemic) [Compound 276], the “Log P” value was 2.3^[a]. In the case of `CCOC(=O)C(C#N)=C(NC(C)c1c(C)nn(C)c1C)c1cccnc1Cl` (racemic) [Compound 277], the “Log P” value is reported as 2.3^[a]. For `CCOC(=O)C(C#N)=C(NC(C)Cn1cccn1)c1cccnc1Cl` (racemic) [Compound 278], the “Log P” value was 2.23^[a]. For `CCOC(=O)C(C#N)=C(NC(C)c1nc2ccccc2[nH]1)c1cccnc1Cl` (racemic) [Compound 279], the “Log P” value was 2^[a]. For `CCOC(=O)C(C#N)=C(NC(C)c1c(C)sc2c1CCCC2)c1cccnc1Cl` (racemic) [Compound 280], the “Log P” value was 4.4^[a]. In the case of `CCOC(=O)C(C#N)=C(NC(C)c1ccc(Cl)cc1)c1cc(Cl)sc1Cl` (racemic) [Compound 499], the “Log P” value is reported as 4.96^[a]. In the case of `CCOC(=O)C(C#N)=C(NC(C)c1ccc(Cl)cc1)c1cn(C)nc1OC` (racemic) [Compound 506], the “Log P” value is reported as 3.51^[a]. With `CCOC(=O)C(C#N)=C(Nc1ccccc1SC)c1cn(C)nc1C(C)F` (racemic) [Compound 521] the “Log P” value was 3.15^[a]. In the case of `CCOC(=O)C(C#N)=C(NC(C)c1ccc(Cl)cc1)c1sc(Cl)nc1Cl` (racemic) [Compound 526], the “Log P” value is reported as 4.54^[a]. For `CCOC(=O)C(C#N)=C(NC(C)c1ccc(F)cc1)c1ccsc1Br` (racemic) [Compound 531], the “Log P” value was 3.89^[a]. In the case of `CCOC(=O)C(C#N)=C(NC(C)CCc1ccccc1)c1ccsc1Br` (racemic) [Compound 538], the “Log P” value is reported as 4.56^[a]. With `CCOC(=O)C(C#N)=C(NC(C)c1ccc(Cl)cc1)c1ccncc1Cl` (racemic) [Compound 541] the “Log P” value was 3.78^[a]. With `CCOC(=O)C(C#N)=C(NC(C)c1ccc(Cl)cc1)c1cn(C)cc1C(F)(F)F` (racemic) [Compound 542] the “Log P” value was 4.2^[a]. With `CCOC(=O)C(C#N)=C(NC(C)c1ccc(Cl)cc1)c1ccnc(Cl)c1Cl` (racemic) [Compound 544] the “Log P” value was 4.21^[a]. With `CCOC(=O)C(C#N)=C(NCC(c1ccccc1)C(C)C)c1cccnc1Cl` (racemic) [Compound 545] the “Log P” value was 4.21^[a]. In the case of `CCOC(=O)C(C#N)=C(NC(C)c1ccc(Cl)cc1)c1ccncc1F` (racemic) [Compound 546], the “Log P” value is reported as 3.48^[a]. With `CCOC(=O)C(C#N)=C(NC1(c2c(F)cccc2F)CC1)c1cn(C)nc1C(C)F` (racemic) [Compound 549] the “Log P” value was 3.23^[a]. With `CCOC(=O)C(C#N)=C(NC(C)c1ccc(C(C)C)cc1)c1cn(C)nc1C(F)F` (racemic) [Compound 550] the “Log P” value was 4.2^[a]. For `CCOC(=O)C(C#N)=C(NC(C)c1ccc(Cl)cc1Cl)c1cn(C)nc1C(F)F` (racemic) [Compound 552], the “Log P” value was 3.96^[a]. In the case of `CCOC(=O)C(C#N)=C(NC(C)c1ccccc1Cl)c1cn(C)nc1C(F)F` (racemic) [Compound 553], the “Log P” value is reported as 3.46^[a]. With `CCOC(=O)C(C#N)=C(NC(C)c1cccc(Cl)c1)c1cn(C)nc1C(F)F` (racemic) [Compound 554] the “Log P” value was 3.55^[a]. For `CCOC(=O)C(C#N)=C(NC(c1ccc(N(C)C)cc1)C(F)(F)F)c1cn(C)nc1C(F)F` (racemic) [Compound 556], the “Log P” value was 3.78^[a]. For `CCOC(=O)C(C#N)=C(NC(CC)c1ccccc1OC)c1cn(C)nc1C(F)F` (racemic) [Compound 557], the “Log P” value was 3.62^[a]. With `CCOC(=O)C(C#N)=C(NC(CC)c1cccc(Cl)c1)c1cn(C)nc1C(F)F` (racemic) [Compound 558] the “Log P” value was 3.87^[a]. In the case of `CCOC(=O)C(C#N)=C(NC(C)CN(C)C)c1cn(C)nc1C(F)F` (racemic) [Compound 578], the “Log P” value is reported as 1.13^[a]. For `CCOC(=O)C(C#N)=C(NCC(C)N)c1cn(C)nc1C(F)F` (racemic) [Compound 579], the “Log P” value was 0.84^[a]. For `CCOC(=O)C(C#N)=C(NC(C)CN(C)C)c1ncc(C(F)(F)F)cc1Cl` (racemic) [Compound 583], the “Log P” value was 1.63^[a]. In the case of `CCOC(=O)C(C#N)=C(NC(C)CN(C)C)c1c(C)nn(C)c1F` (racemic) [Compound 584], the “Log P” value is reported as 0.96^[a]. For `COC(=O)C(C#N)=C(NC(C)CN(C)C)c1cn(C)nc1C(F)F` (racemic) [Compound 587], the “Log P” value was 0.82^[a]. With `CCOC(=O)C(C#N)=C(NC(C)CN(C)C)c1nsc(Cl)c1Cl` (racemic) [Compound 588] the “Log P” value was 1.41^[a]. In the case of `CCOC(=O)C(C#N)=C(NC(C)CN)c1ncc(C(F)(F)F)cc1Cl` (racemic) [Compound 589], the “Log P” value is reported as 1.59^[a]. With `CCOC(=O)C(C#N)=C(NC(C)C(N)=O)c1cn(C)nc1C(F)F` (racemic) [Compound 590] the “Log P” value was 1.5^[a]. In the case of `COC(=O)C(C#N)=C(NC(C)CN)c1cn(C)nc1C(F)F` (racemic) [Compound 591], the “Log P” value is reported as 0.58^[a]. For `CCOC(=O)C(C#N)=C(NC(C)C(N)=O)c1ncc(C(F)(F)F)cc1Cl` (racemic) [Compound 592], the “Log P” value was 2.17^[a]. With `CCOC(=O)C(C#N)=C(NC(C)C(=O)Nc1ccc2ccccc2c1)c1sccc1C(F)(F)F` (racemic) [Compound 653] the “Log P” value was 4.01^[a]. In the case of `CCOC(=O)C(C#N)=C(NC(C)COc1c(C)cccc1C)c1sccc1C(F)(F)F` (racemic) [Compound 654], the “Log P” value is reported as 4.89^[a]. With `CCOC(=O)C(C#N)=C(NC(C)COC)c1sccc1C(F)(F)F` (racemic) [Compound 655] the “Log P” value was 3.31^[a]. In the case of `CCOC(=O)C(C#N)=C(NC(C)C(=O)OCC)c1sccc1C(F)(F)F` (racemic) [Compound 656], the “Log P” value is reported as 3.44^[a].

Same assay, conditions: pH 7.5
For `C#CCOC(=O)C(C#N)=C(NC(C)c1nccs1)c1cccnc1Cl` (racemic) [Compound 267], the “Log P” value was 2.26. In the case of `CC(NC(=C(C#N)C(=O)OC1CCC1)c1cccnc1Cl)c1nccs1` (racemic) [Compound 268], the “Log P” value is reported as 2.88. With `CNC(=O)C(C#N)=C(NC(C)c1nccs1)c1cccnc1Cl` (racemic) [Compound 269] the “Log P” value was 1.69. For `COCC(C)NC(=C(C#N)C(=O)OC)c1cccnc1Cl` (racemic) [Compound 564], the “Log P” value was 2.13. For `COC(=O)C(C#N)=C(NC(C)CSC)c1cccnc1Cl` (racemic) [Compound 576], the “Log P” value was 2.38.
